Tests used:
Assay in all cases: cell-based
PTGER2 (EP2) = PTGER2 (EP2) (Homo sapiens, UniProt P43116)
PTRGER4 (EP4) = PTRGER4 (EP4) (Homo sapiens, UniProt P35408);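 further: assay plate preincubated 15 min at 37 °C, after which PGE2 was added at 20 nM final and incubation continued 120 min at 37 °C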
EP2 = EP2 (Homo sapiens, UniProt P43116);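 further: SF295 glioblastoma cells with endogenous EP2 only, PGE2-stimulated cAMP accumulation read by HTRF competitive immunoassay, 45 min pre-incubation then 30 min at room temperature, IBMX in buffer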
EP4 = EP4 (Homo sapiens, UniProt P35408);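 further: inhibition of PGE2-evoked (6 nM) cAMP accumulation in BT549 breast cancer cells endogenously expressing EP4, cAMP read by HTRF competitive immunoassay after 30 min at room temperature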
EP4, sequence (P35408 whole entry): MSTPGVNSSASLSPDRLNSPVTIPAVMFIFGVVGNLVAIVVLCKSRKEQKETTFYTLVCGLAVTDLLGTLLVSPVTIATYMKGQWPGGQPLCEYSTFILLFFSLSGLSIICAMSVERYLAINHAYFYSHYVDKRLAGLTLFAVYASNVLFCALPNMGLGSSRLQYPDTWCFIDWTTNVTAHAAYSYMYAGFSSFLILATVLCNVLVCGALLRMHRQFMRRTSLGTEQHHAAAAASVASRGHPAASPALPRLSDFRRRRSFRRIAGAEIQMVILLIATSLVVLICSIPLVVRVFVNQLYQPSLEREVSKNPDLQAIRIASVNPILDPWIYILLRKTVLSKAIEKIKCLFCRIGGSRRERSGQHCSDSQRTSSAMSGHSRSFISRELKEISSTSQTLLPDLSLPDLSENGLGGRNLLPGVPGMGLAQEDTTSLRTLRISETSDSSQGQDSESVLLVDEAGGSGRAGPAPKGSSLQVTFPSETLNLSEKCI
Description: Human tumor cell lines expressing endogenously either EP4 or EP2 are used and cAMP accumulation in cells upon PGE2 stimulation is monitored.
As a detection method for cAMP the HTRF (homogeneous time resolved fluorescence) Cisbio kit (HTRF cAMP dynamic 2 kit 20′000 tests Cisbio Cat. #62AM4PEC) was used, which is based on a competitive immunoassay using a Cryptate-labeled anti-cAMP antibody and d2-labeled cAMP. Native cAMP produced by cells or unlabeled cAMP (for the standard curve) compete with exogenously added d2-labeled cAMP (acceptor) for binding to monoclonal anti-cAMP-Eu3+ Cryptate (donor). A FRET signal (Fluorescence Resonance Energy Transfer) is obtained only if the labeled anti-cAMP antibody binds the d2 labelled cAMP, thus the specific signal (i.e. energy transfer) is inversely proportional to the concentration of cAMP in the standard or sample.
The BT549 cells (NCI/No. 0507282) are detached from culture dishes with a cell dissociation buffer (Invitrogen, 13151-014), and collected in growing medium (GM: RPM11640 (Invitrogen 21875)/10% FCS, 1% Penicilin/streptomycin). Cells are counted washed and resuspended in assay buffer (AB; HBSS, 20 mM HEPES, 0.2% BSA; 2 mM IBMX). 4′000 cells in 5 μl of AB are seeded per well of a small volume 384 well plate (black with flat bottom, Greiner 784076).
Stock solutions of test compounds are made at a concentration of 10 mM in DMSO, and serially diluted in DMSO to concentrations required for inhibition dose response curves (tested concentration range 30 μM-0.4 nM; 30 μM-0.015 nM or 1 μM-0.01 nM).
PGE2 (Cayman 14010, stock solution: 6 μM in DMSO) is used as agonist at 6 nM final concentration, corresponding to EC80.
Two point five microliters of diluted compounds are transferred into the assay plate. Plate is pre-incubated 45 minutes at room temperature. Subsequently, 2.5 microliters of PGE2 (final conc. 6 nM) are transferred into the assay plate. Plate is incubated 30 minutes at room temperature.
For each compound concentration the percentage of cAMP compared to DMSO control value as average±STDEV (each concentration is measured in duplicate) is calculated.
When compounds were measured multiple times, mean values are given.

PTRGER4 (EP4), sequence (P35408 whole entry): as above
PTGER2 (EP2), sequence (P43116 whole entry): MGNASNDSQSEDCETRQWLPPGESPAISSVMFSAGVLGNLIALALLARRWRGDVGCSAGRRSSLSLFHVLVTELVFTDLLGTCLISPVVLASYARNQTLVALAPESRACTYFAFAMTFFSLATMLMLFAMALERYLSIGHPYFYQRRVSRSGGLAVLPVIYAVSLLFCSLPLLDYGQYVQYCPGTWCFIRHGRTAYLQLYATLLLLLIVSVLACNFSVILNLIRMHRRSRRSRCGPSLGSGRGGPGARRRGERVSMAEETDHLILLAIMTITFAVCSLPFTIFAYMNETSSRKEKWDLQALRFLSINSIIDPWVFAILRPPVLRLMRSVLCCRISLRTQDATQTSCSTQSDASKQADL
EP2, sequence (P43116 whole entry): as above

Row | Structure (SMILES) | IC50 (PTGER2 (EP2)) [nM] | IC50 (PTRGER4 (EP4)) [nM] | IC50 (EP2) [nM] | IC50 (EP4) [nM]
1 | Cc1ccc(CCNc2cc(-c3cc(F)c(C(=O)O)s3)ncn2)cc1 [Example 1, 3-Fluoro-5-[6-(2-p-tolyl-ethylamino)-pyrimidin-4-yl]thiophene-2-carboxylic acid] | 240 | 402 | 86 | 65
2 | COc1cc(SC)ccc1CCNc1cc(-c2ccc(C(=O)O)c(SC)c2)ncn1 [Example 2, 4-{6-[2-(2-Methoxy-4-methylsulfanyl-phenyl)-ethylamino]-pyrimidin-4-yl}-2-methylsulfanyl-benzoic acid] | 438 | 550 | 79 | 112
3 | COc1cc(C)c(C)cc1CCNc1cc(-c2ccc(C(=O)O)c(SC)c2)ncn1 [Example 3, 4-{6-[2-(2-Methoxy-4,5-dimethyl-phenyl)-ethylamino]-pyrimidin-4-yl}-2-methylsulfanyl-benzoic acid] | 86 | 420 | 45 | 46
4 | CCOc1cc(-c2cc(NCCc3ccc(SC)cc3OC)ncn2)ccc1C(=O)O [Example 6, 2-Ethoxy-4-{6-[2-(2-methoxy-4-methylsulfanyl-phenyl)-ethylamino]-pyrimidin-4-yl}-benzoic acid] | 1350 | 1210 | 702 | 573
5 | CCOc1cc(-c2cc(NCCc3cc(C)c(C)cc3OC)ncn2)ccc1C(=O)O [Example 7, 2-Ethoxy-4-{6-[2-(2-methoxy-4,5-dimethyl-phenyl)-ethylamino]-pyrimidin-4-yl}-benzoic acid] | 441 | 759 | 205 | 140
6 | CCOc1cc(-c2cc(NCCc3ccc(Br)cc3)ncn2)ccc1C(=O)O [Example 11, 4-{6-[2-(4-Bromo-phenyl)-ethylamino]-pyrimidin-4-yl}-2-ethoxy-benzoic acid] | 358 | 1090 | 311 | 440
7 | CCOc1cc(-c2cc(NCCc3ccc(Br)cc3)ncn2)ccc1-c1noc(=O)[nH]1 [Example 15, 3-(4-{6-[2-(4-Bromo-phenyl)-ethylamino]-pyrimidin-4-yl}-2-ethoxy-phenyl)-[1,2,4]oxadiazol-5(4H)-one] | 368 | 56 | 198 | 42
8 | CCOc1cc(-c2cc(NCCc3ccc(Br)cc3)ncn2)sc1CC(=O)O [Example 17, (5-{6-[2-(4-Bromo-phenyl)-ethylamino]-pyrimidin-4-yl}-3-ethoxy-thiophen-2-yl)-acetic acid] | 202 | 147 | 189 | 293
9 | CSc1cc(-c2cc(NCCc3ccc(C)c(C)c3)ncn2)ccc1C(=O)O [Example 18, 4-{6-[2-(3,4-Dimethyl-phenyl)-ethylamino]-pyrimidin-4-yl}-2-methylsulfanyl-benzoic acid] | 481 | 168 | 130 | 173
10 | CCOc1cc(-c2cc(NCCc3ccc(Br)cc3F)ncn2)ccc1C(=O)O [Example 21, 4-{6-[2-(4-Bromo-2-fluoro-phenyl)-ethylamino]-pyrimidin-4-yl}-2-ethoxy-benzoic acid] | 248 | 779 | 193 | 80
11 | CCOc1cc(-c2cc(NCCc3c(F)cc(Br)cc3F)ncn2)ccc1-c1nnn[nH]1 [Example 23, [2-(4-Bromo-2,6-difluoro-phenyl)-ethyl]-{6-[3-ethoxy-4-(1H-tetrazol-5yl)-phenyl]-pyrimidin-4-yl}-amine] | 73 | 60 | 28 | 61
12 | O=C(O)c1ccc(-c2cc(NCCc3c(F)cc(Br)cc3F)ncn2)s1 [Example 26, 5-{6-[2-(4-Bromo-2,6-difluoro-phenyl)-ethylamino]-pyrimidin-4-yl}-thiophene-2-carboxylic acid] | 149 | 104 | 46 | 115
13 | CCOc1c(C(=O)O)sc(-c2cc(NCCc3c(F)cc(Br)cc3F)ncn2)c1Cl [Example 27, 5-{6-[2-(4-Bromo-2,6-difluoro-phenyl)-ethylamino]-pyrimidin-4-yl}-4-chloro-3-ethoxy-thiophene-2-carboxylic acid] | 23 | 168 | 50 | 97
14 | Cc1cc(-c2cc(NCCc3c(F)cc(Br)cc3F)ncn2)sc1C(=O)O [Example 28, 5-{6-[2-(4-Bromo-2,6-difluoro-phenyl)-ethylamino]-pyrimidin-4-yl}-3-methyl-thiophene-2-carboxylic acid] | 49 | 80 | 41 | 41
15 | CCc1cc(-c2cc(NCCc3c(F)cc(Br)cc3F)ncn2)sc1C(=O)O [Example 29, 5-{6-[2-(4-Bromo-2,6-difluoro-phenyl)-ethylamino]-pyrimidin-4-yl}-3-ethyl-thiophene-2-carboxylic acid] | 29 | 20 | 23 | 12
16 | O=C(O)c1sc(-c2cc(NCCc3c(F)cc(Br)cc3F)ncn2)cc1Cl [Example 31, 5-{6-[2-(4-Bromo-2,6-difluoro-phenyl)-ethylamino]-pyrimidin-4-yl}-3-chloro-thiophene-2-carboxylic acid] | 39 | 100 | 8 | 14
17 | CCCc1cc(-c2cc(NCCc3c(F)cc(Br)cc3F)ncn2)ccc1C(=O)O [Example 35, 4-{6-[2-(4-Bromo-2,6-difluoro-phenyl)-ethylamino]-pyrimidin-4-yl}-2-propyl-benzoic acid] | 109 | 242 | 86 | 433
18 | CCCOc1cc(-c2cc(NCCc3c(F)cc(Br)cc3F)ncn2)ccc1C(=O)O [Example 36, 4-{6-[2-(4-Bromo-2,6-difluoro-phenyl)-ethylamino]-pyrimidin-4-yl}-2-propoxy-benzoic acid] | 70 | 684 | 91 | 951
19 | CC(C)Cc1cc(-c2cc(NCCc3c(F)cc(Br)cc3F)ncn2)ccc1C(=O)O [Example 38, 4-{6-[2-(4-Bromo-2,6-difluoro-phenyl)-ethylamino]-pyrimidin-4-yl}-2-isobutyl-benzoic acid] | 277 | 202 | 128 | 81
20 | CCCc1cc(-c2cc(NCCc3c(F)cc(Br)cc3F)ncn2)cc(F)c1C(=O)O [Example 39, 4-{6-[2-(4-Bromo-2,6-difluoro-phenyl)-ethylamino]-pyrimidin-4-yl}-2-fluoro-6-propyl-benzoic acid] | 122 | 349 | 164 | 697
21 | CCOc1cc(Br)ccc1CCNc1cc(-c2ccc(C(=O)O)c(OCC)c2)ncn1 [Example 51, 4-{6-[2-(4-Bromo-2-ethoxy-phenyl)-ethylamino]-pyrimidin-4-yl}-2-ethoxy-benzoic acid] | 39 | – | 72 | 684
22 | CCOc1cc(-c2cc(NCCc3ccccc3Br)ncn2)sc1C(=O)O [Example 70, 5-{6-[2-(2-Bromo-phenyl)-ethylamino]-pyrimidin-4-yl}-3-ethoxy-thiophene-2-carboxylic acid] | 260 | – | 139 | 554
23 | CCOc1cc(-c2cc(NCCc3ccccc3Cl)ncn2)sc1C(=O)O [Example 78, 5-{6-[2-(2-Chloro-phenyl)-ethylamino]-pyrimidin-4-yl}-3-ethoxy-thiophene-2-carboxylic acid] | 176 | – | 149 | 458
24 | CCOc1cc(-c2cc(NCCc3ccc(Br)cc3)ncn2)sc1-c1noc(NCCO)n1 [Example 141, 2-[3-(5-{6-[2-(4-Bromo-phenyl)-ethylamino]-pyrimidin-4-yl}-3-ethoxy-thiophen-2-yl)-[1,2,4]oxadiazol-5-ylamino]-ethanol] | – | 8 | 381 | 168
25 | CCOc1cc(-c2cc(NCCc3ccc(Br)cc3)ncn2)sc1CCc1noc(=O)[nH]1 [Example 144, 3-[2-(5-{6-[2-(4-Bromo-phenyl)-ethylamino]-pyrimidin-4-yl}-3-ethoxy-thiophen-2-yl)-ethyl]-[1,2,4]oxadiazol-5(4H)-one] | – | 126 | 1000 | 433
26 | NC(=O)Cc1ccc(-c2cc(NCCc3ccc(Br)cc3)ncn2)s1 [Example 158, 2-(5-{6-[2-(4-Bromo-phenyl)-ethylamino]-pyrimidin-4-yl}-thiophen-2-yl)-acetamide] | – | 2270 | 643 | 913
27 | CCOc1cc(-c2cc(NCCc3cc(Cl)ccc3C#N)ncn2)sc1-c1noc(=O)[nH]1 [Example 160, 4-Chloro-2-(2-{6-[4-ethoxy-5-(5-oxo-4,5-dihydro-[1,2,4]oxadiazol-3-yl)-thiophen-2-yl]-pyrimidin-4-ylamino}-ethyl)-benzonitrile] | – | 134 | 318 | 256
28 | CCOc1cc(-c2cc(NCCc3ccc(N(C)C)cc3F)ncn2)sc1-c1noc(=O)[nH]1 [Example 161, 3-(5-{6-[2-(4-Dimethylamino-2-fluoro-phenyl)-ethylamino]-pyrimidin-4-yl}-3-ethoxy-thiophen-2-yl)[1,2,4]oxadiazol-5(4H)-one] | – | 10 | 713 | 40
29 | CCOc1cc(-c2cc(NCCc3ccc(Br)cc3)ncn2)sc1CC(N)=O [Example 287, 2-(5-{6-[2-(4-Bromo-phenyl)-ethylamino]-pyrimidin-4-yl}-3-ethoxy-thiophen-2-yl)-acetamide] | – | 315 | 868 | 1210
30 | Brc1ccc(CCNc2cc(-c3ccc(Cc4nnn[nH]4)s3)ncn2)cc1 [Example 288, [2-(4-Bromo-phenyl)-ethyl]-{6-[5-(1H-tetrazol-5-ylmethyl)-thiophen-2-yl]-pyrimidin-4-yl}-amine] | – | 1190 | 739 | 775
